Measurements taken from ChEMBL document CHEMBL5724914, “Linking interpersonal differences in gut microbiota composition and drug biotransformation activity” (2024).

Key:
[1] = (§1) The drug is tested on Z-019 corresponding to rat gut metagenome with ENA study accession number: PRJEB37062 and ENA sample accession number: ERS12561818 for biotransformation under anaerobic condition. The drug concentrations were measured over 9 timepoints collected between 0 and 24 hours of incubation by liquid-chromatography-coupled mass spectrometry (LC–MS); conditions: 2 µM
[2] = as §1, with “on WLS-027” for “on Z-019”, “to human” for “to rat”, “number: ERS12561744” for “number: ERS12561818”; conditions: 2 µM
[3] = human gut metagenome, 24 h, 2 µM
[4] = human gut metagenome, 24 h, 2 µM; remark: listed apart in the source
[5] = as §1, with “on WLS-370” for “on Z-019”, “to human” for “to rat”, “number: ERS12561793” for “number: ERS12561818”; conditions: 2 µM
[6] = as §1, with “on WLS-090” for “on Z-019”, “to human” for “to rat”, “number: ERS12561753” for “number: ERS12561818”; conditions: 2 µM
[7] = as §1, with “on Z-020” for “on Z-019”, “to rabbit” for “to rat”, “number: ERS12561819” for “number: ERS12561818”; conditions: 2 µM
[8] = as §1, with “on Z-016” for “on Z-019”, “to mouse” for “to rat”, “number: ERS12561815” for “number: ERS12561818”; conditions: 2 µM
[9] = as §1, with “on Z-018” for “on Z-019”, “to pig” for “to rat”, “number: ERS12561817” for “number: ERS12561818”; conditions: 2 µM
[10] = human gut metagenome, 24 h, 2 µM; remark: listed apart in the source
[11] = human gut metagenome, 24 h, 2 µM; remark: listed apart in the source
[12] = human gut metagenome, 24 h, 2 µM; remark: listed apart in the source
[13] = as §1, with “on Z-003” for “on Z-019”, “to pig” for “to rat”, “number: ERS12561803” for “number: ERS12561818”; conditions: 2 µM
[14] = human gut metagenome, 24 h, 2 µM; remark: listed apart in the source
[15] = as §1, with “on WLS-220” for “on Z-019”, “to human” for “to rat”, “number: ERS12561769” for “number: ERS12561818”; conditions: 2 µM
[16] = human gut metagenome, 24 h, 2 µM; remark: listed apart in the source
[17] = human gut metagenome, 24 h, 2 µM; remark: listed apart in the source
[18] = as §1, with “on Z-013” for “on Z-019”, “to rabbit” for “to rat”, “number: ERS12561813” for “number: ERS12561818”; conditions: 2 µM
[19] = human gut metagenome, 24 h, 2 µM; remark: listed apart in the source
[20] = human gut metagenome, 24 h, 2 µM; remark: listed apart in the source
Note: call rule not given here.

| Compound | Bacterial Biotransformation [1] | Bacterial Biotransformation [2] | Bacterial Biotransformation [3] | Bacterial Biotransformation [4] | Bacterial Biotransformation [5] | Bacterial Biotransformation [6] | Bacterial Biotransformation [7] | Bacterial Biotransformation [8] | Bacterial Biotransformation [9] | Bacterial Biotransformation [10] | Bacterial Biotransformation [11] | Bacterial Biotransformation [12] | Bacterial Biotransformation [13] | Bacterial Biotransformation [14] | Bacterial Biotransformation [15] | Bacterial Biotransformation [16] | Bacterial Biotransformation [17] | Bacterial Biotransformation [18] | Bacterial Biotransformation [19] | Bacterial Biotransformation [20] |
| --- | --- | --- | --- | --- | --- | --- | --- | --- | --- | --- | --- | --- | --- | --- | --- | --- | --- | --- | --- | --- |
| CN(C)CCC=C1c2ccccc2COc2ccccc21 [DOXEPIN] | Compound NOT metabolized | Compound metabolized | Compound NOT metabolized | Compound NOT metabolized | Compound metabolized | Compound metabolized | Compound NOT metabolized | Compound NOT metabolized | Compound NOT metabolized | Compound NOT metabolized | Compound NOT metabolized | Compound metabolized | Compound NOT metabolized | Compound NOT metabolized | Compound metabolized | Compound NOT metabolized | Compound metabolized | Compound NOT metabolized | Compound NOT metabolized | Compound NOT metabolized |
| C[C@]12CCC(=O)C=C1[C@@H]1C[C@@H]1[C@H]1[C@@H]3[C@@H]4C[C@@H]4[C@@]4(CCC(=O)O4)[C@@]3(C)CC[C@@H]12 [DROSPIRENONE] | Compound NOT metabolized | Compound metabolized | Compound metabolized | Compound metabolized | Compound metabolized | Compound NOT metabolized | Compound metabolized | Compound metabolized | Compound metabolized | Compound NOT metabolized | Compound metabolized | Compound metabolized | Compound metabolized | Compound NOT metabolized | Compound metabolized | Compound NOT metabolized | Compound metabolized | Compound metabolized | Compound NOT metabolized | Compound metabolized |
| CC(C)c1c(CN(C)C(C)Cc2ccccc2)n(C)n(-c2ccccc2)c1=O (stereo not given) [FAMPROFAZONE] | Compound NOT metabolized | Compound metabolized | Compound metabolized | Compound metabolized | Compound metabolized | Compound metabolized | Compound NOT metabolized | Compound metabolized | Compound NOT metabolized | Compound metabolized | Compound metabolized | Compound metabolized | Compound metabolized | Compound metabolized | Compound metabolized | Compound metabolized | Compound metabolized | Compound metabolized | Compound NOT metabolized | Compound metabolized |
| Nc1nc(N)nc(-c2cc(Cl)ccc2Cl)n1.O=C(O)/C=C\C(=O)O [IRSOGLADINE MALEATE] | Compound NOT metabolized | Compound NOT metabolized | Compound NOT metabolized | Compound NOT metabolized | Compound NOT metabolized | Compound NOT metabolized | Compound NOT metabolized | Compound NOT metabolized | Compound NOT metabolized | Compound NOT metabolized | Compound NOT metabolized | Compound metabolized | Compound NOT metabolized | Compound NOT metabolized | Compound NOT metabolized | Compound NOT metabolized | Compound NOT metabolized | Compound NOT metabolized | Compound NOT metabolized | Compound NOT metabolized |
